Test: Waters ACQUITY UPLC BEH C18, 100 × 2.1 mm, 1.7 µm, 40 °C, 0.3 to 0.4 mL/min, estimated dead time 0.63 min; A: water + 0.1% formic acid; B: methanol + 0.1% formic acid; gradient (min/%B) 0/0.5 0.1/0.5 10/80 10.1/99.5 12/99.5
Settings: stereoisomer not certain

Compound | LC retention time
CC1C2CCC3C4CC=C5CC(N(C)C)CCC5(C)C4CCC32CN1C (stereo unspecified) | 3.35 min
O=c1[nH]c(=O)c2ncn(C3OC(CO)C(O)C3O)c2[nH]1 (stereo unspecified) | 2.07 min
NC(=O)CCC(NC(=O)CCCc1ccccc1)C(=O)O (stereo unspecified) | 2.88 min
O=C(O)C1CCCN1C(=O)C1CCCN1 (stereo unspecified) | 1.82 min
C=CCS(=O)CC(NCC1(O)OCC(O)C(O)C1O)C(=O)O (stereo unspecified) | 1.66 min
CCC(C)C(NCC1(O)OC(CO)C(O)C1O)C(=O)O (stereo unspecified) | 1.98 min
C=C1CC23CC4C5C6(C)CC(OC(C)=O)CC57C2C(O)C1C(O)C3(O)C7N4C6 (stereo unspecified) | 3.03 min
COc1ccc(C2CC(=O)c3c(O)cc(O)cc3O2)cc1O (stereo unspecified) | 6.04 min
CC(C)CC1NC(=O)C2CCCN2C1=O (stereo unspecified) | 4.03 min
CC(=O)NC(CC(C)C)C(=O)O (stereo unspecified) | 3.81 min
Cc1[nH]ccc2c1[nH]c1cc(=O)ccc12 | 3.18 min
COc1ccc(C=Cc2cc(OC)cc(OC)c2)cc1 | 9.6 min
NC(Cc1ccccc1)C(=O)O (stereo unspecified) | 2.3 min
CC1OC(OC2C(OC3C(OC4CCC5(C)C(CCC6(C)C5CC=C5C7CC(C)(C)CC(O)C7(C)CCC56C)C4(C)CO)OC(C(=O)O)C(O)C3O)OCC(O)C2O)C(O)C(O)C1O (stereo unspecified) | 7.28 min
CC=CS(=O)CC(NC(=O)CCC(NCC1(O)OCC(O)C(O)C1O)C(=O)O)C(=O)O (stereo unspecified) | 1.83 min
CC(C)=CCc1cc(CCc2cc(O)c(CC=C(C)C)c(O)c2)ccc1O | 9.01 min

Compound | LC retention time
CC(C)=CCc1cc(-c2coc3cc(O)c(CC=C(C)C)c(O)c3c2=O)cc(O)c1O | 8.06 min
CC(C)=CCc1cc(C(O)=CC(=O)c2cc(CC=C(C)C)c(O)cc2O)ccc1O | 9.52 min
O=C(O)C1Cc2c([nH]c3ccccc23)CN1 (stereo unspecified) | 3.35 min
CN1C2CCC1CC(OC(=O)C(CO)c1ccccc1)C2 (stereo unspecified) | 3.59 min
CCC(C)C(=O)OC1C(O)C2C(CN3CC(C)CCC3C2(C)O)C2CC34OC5(O)C(OC(=O)C(C)(O)C(C)OC(C)=O)CCC3(C)C5CC(O)C4C21O (stereo unspecified) | 5.04 min
CC(CSCC(NC(=O)CCC(N)C(=O)O)C(=O)NCC(=O)O)C(=O)O (stereo unspecified) | 2.36 min
O=c1c(-c2ccc(O)c(O)c2)coc2cc(O)ccc12 | 4.63 min
COc1ccc2c(c1OC)C(=O)OC2C1c2cc3c(cc2CCN1C)OCO3 (stereo unspecified) | 4.21 min
COc1c(-c2ccccc2)oc2c(OC)c(O)cc(O)c2c1=O | 5.71 min
COc1ccc(-c2coc3cc(O)cc(O)c3c2=O)cc1 | 7.63 min
COc1cc(CC2COC(=O)C2Cc2ccc(O)c(OC)c2)ccc1O (stereo unspecified) | 5.96 min
CCC(C)C(N)C(=O)NC(C(=O)O)C(C)CC (stereo unspecified) | 3.05 min
O=C1c2c(O)cc(O)cc2OC(c2ccc(O)c(O)c2)C1O (stereo unspecified) | 4.27 min
O=c1c(O)c(-c2ccc(O)cc2)oc2cc(O)cc(O)c12 | 6.01 min
CC(C)C(O)(CC(=O)O)C(=O)O (stereo unspecified) | 3.25 min
COC(=O)C1C2CC3c4[nH]c5cc(OC)ccc5c4CCN3CC2CC(OC(=O)c2cc(OC)c(OC)c(OC)c2)C1OC (stereo unspecified) | 6.12 min

Second part, the compound after the results:

LC retention time | Compound
4.13 min | C=CC1C(OC2OC(CO)C(O)C(O)C2O)OC=C(C(=O)OC)C1CC1NC(C(=O)O)Cc2c1[nH]c1ccccc21 (stereo unspecified)
7.33 min | COC1C(O)C(OC2C(OC3C(OC4CCC5(C)C(CCC6(C)C5CC=C5C7CC(C)(C)CC(O)C7(C)CCC56C)C4(C)CO)OC(C(=O)O)C(O)C3O)OC(C(=O)O)C(O)C2O)OC(CO)C1OC(C)=O (stereo unspecified)
3.82 min | O=C(O)c1cc(O)c2c(c1)C(C1c3cc(C(=O)O)cc(O)c3C(=O)c3c(OC4OC(CO)C(O)C(O)C4O)cccc31)c1cccc(OC3OC(CO)C(O)C(O)C3O)c1C2=O (stereo unspecified)
4.57 min | COc1cc(-c2cc(=O)c3c(O)cc(OC4OC(CO)C(O)C(O)C4O)cc3o2)cc(OC)c1O (stereo unspecified)
3.87 min | COc1cc(-c2cc(=O)c3c(O)c(C4OC(CO)C(O)C(O)C4OC4OC(CO)C(O)C(O)C4O)c(O)cc3o2)ccc1O (stereo unspecified)
3.8 min | O=c1c(OC2OC(CO)C(O)C(O)C2OC2OC(CO)C(O)C(O)C2O)c(-c2ccc(O)cc2)oc2cc(O)cc(O)c12 (stereo unspecified)
3.87 min | COc1cc(C=CC(=O)OCC2OC(OC3C(c4c(O)cc5oc(-c6ccc(O)c(O)c6)cc(=O)c5c4O)OC(CO)C(O)C3O)C(O)C(O)C2O)ccc1O (stereo unspecified)
4.29 min | CC(=O)OC1C(C)CNC2C(C)C3C(CC4C5CCC6CC(OC7OC(CO)C(OC8OC(CO)C(O)C(OC9OCC(O)C(O)C9O)C8OC8OC(CO)C(O)C(O)C8O)C(O)C7O)CCC6(C)C5CCC43C)OC21O (stereo unspecified)
4.1 min | O=C(C=Cc1ccc(O)c(O)c1)c1ccc(OC2OC(CO)C(O)C(O)C2O)c(O)c1O (stereo unspecified)
3.92 min | CC1OC(OCC2OC(Oc3cc(O)c4c(c3)OC(c3ccc(O)c(O)c3)CC4=O)C(O)C(O)C2O)C(O)C(O)C1O (stereo unspecified)
4.6 min | O=C(C=Cc1ccc(O)c(O)c1)OC1CC(O)(C(=O)O)CC(OC(=O)C=Cc2ccc(O)c(O)c2)C1O (stereo unspecified)
4.68 min | COc1cc(C=CC(=O)OC2C(OC3C(Oc4cc(O)c5c(=O)cc(-c6ccc(O)c(OC)c6)oc5c4)OC(C(=O)O)C(O)C3O)OC(C(=O)O)C(O)C2O)ccc1O (stereo unspecified)
2.91 min | OCC1OC(Oc2cc3c(O)cc(O)cc3[o+]c2-c2ccc(O)c(O)c2)C(O)C(O)C1O (stereo unspecified)
2.01 min | Nc1[nH]c(=O)[nH]c(=O)c1OC1OC(CO)C(O)C(O)C1O (stereo unspecified)
3.7 min | O=c1c(OC2OC(COC3OCC(O)C(O)C3O)C(O)C(O)C2O)c(-c2ccc(O)c(O)c2)oc2cc(O)cc(O)c12 (stereo unspecified)
5.68 min | CC1OC(OC2C(OC3C(OC4CCC5(C)C(CCC6(C)C5CC=C5C7CC(C)(C)C(OC8OC(C)C(O)C(O)C8O)CC7(C)CCC56C)C4(C)CO)OC(C(=O)O)C(O)C3O)OC(C(=O)O)C(O)C2O)C(O)C(O)C1O (stereo unspecified)
1.7 min | Cc1ncc(COC2OC(CO)C(O)C(O)C2O)c(CO)c1O (stereo unspecified)
3.04 min | O=C1CC(c2ccc(O)cc2)Oc2c1c(O)cc(O)c2C1OC(CO)C(O)C(O)C1O (stereo unspecified)
3.86 min | CC1OC(OCC2OC(Oc3c(-c4ccc(O)c(O)c4)oc4cc(O)cc(O)c4c3=O)C(O)C(O)C2O)C(O)C(O)C1O (stereo unspecified)
6.15 min | CC1(C(=O)O)CCC2(C)CCC3(C)C(=CCC4C5(C)CCC(OC6OC(C(=O)O)C(O)C(O)C6OC6OC(C(=O)O)C(O)C(O)C6O)C(C)(CO)C5CCC43C)C2C1 (stereo unspecified)
4.72 min | CC1CCC2(NC1)OC1CC3C4CC=C5CC(OC6OC(CO)C(OC7OC(CO)C(O)C(OC8OCC(O)C(O)C8O)C7OC7OC(CO)C(O)C(O)C7O)C(O)C6O)CCC5(C)C4CCC3(C)C1C2C (stereo unspecified)
8.2 min | CC(C)=CCCC(C)(O)C1CCC2(C)C1C(O)CC1C3(C)CCC(OC4OC(CO)C(O)C(O)C4OC4OC(CO)C(O)C(O)C4O)C(C)(C)C3CCC12C (stereo unspecified)
4.58 min | COc1c(OC2OC(CO)C(O)C(O)C2O)cc2oc(-c3ccc(O)c(O)c3)c(O)c(=O)c2c1O (stereo unspecified)
3.98 min | CC1OC(OC2C(O)C(C)OC(OCC3OC(Oc4c(-c5ccc(O)cc5)oc5cc(O)cc(O)c5c4=O)C(O)C(O)C3O)C2O)C(O)C(O)C1O (stereo unspecified)
